Converted amounts (≈) assume the structure as drawn.
Key:
B. bronchiseptica = experiment: MIC determination, broth-microdilution (CLSI VET01-A4), field isolates; assay type: cell-based, Bordetella bronchiseptica
Experimental: (§1) This study determined the in vitro activity Compound (A), the enantiomer of the compound of Formula (I), against different isolates of Actinobacillus (A.) pleuropneumoniae, Bordetella (B.) bronchiseptica, Mannheimia (M.) haemolytica, Pasteurella (P.) multocida, Histophilus (H.) somni and Glaesserella parasuis collected in different European countries.
(§2) The in vitro activity was determined by measuring the minimum inhibitory concentrations (MIC) according to CLSI document VET01-A4 [1] and by calculating MIC50 and MIC90.
(§3) A total of 193 field isolates were tested: 31 of A. pleuropneumoniae, 20 of B. bronchiseptica, 20 of H. somni, 20 H. parasuis, 55 of M. haemolytica and 47 of P. multocida. All bacteria were isolated from the respiratory tract of cattle and swine suffering from respiratory disease. All isolates were epidemiologically unrelated as specified by the different suppliers. E. coli ATCC 25922 (ID 6105) and M. haemolytica ATCC 33396 (ID 6374) were used as reference strains for testing isolates of B. bronchiseptica, M. haemolytica and P. multocida. A. pleuropneumoniae ATCC 27090 (ID 6314) and H. somni ATCC 700025 (ID 6315) were used as reference strains for the testing isolates of A. pleuropneumoniae, H. somni and Glaesserella parasuis. Additionally, H. parasuis (G. parasuis) ATCC 19417 was included as type strain for growth control.
(§4) • Mueller-Hinton agar (Becton Dickinson, Lot 9224866) • Cation-adjusted Mueller-Hinton broth, (CAVHB, Becton Dickinson, Lot 8190586) • Sheep blood, defibrinated (Thermo Scientific, Lot 37091500) • Chocolate agar, GC II with IsoVitalex™ (Becton Dickinson, Lot 0147695) • GC-agar base (Becton Dickinson, Lot 6082608) • Hemoglobin solution (Becton Dickinson, Lot 7142854) • Vitox (Oxoid, Lot 2344976) • Veterinary fastidious Medium (VFM), prepared according to CLSI document VET01-A4 [1], containing: • CAMHB (Becton Dickinson, Lot 8190586) • Yeast extract (Sigma, Lot BCBS5470V) • Lysed horse blood (Thermo Scientific, Lot 35875000) • Supplement C™ (Becton Dickinson, Lot 8030960) • Deionized water
(§5) The MICs for all isolates except for H. somni and Glaesserella parasuis isolates, were determined by using the broth-microdilution method according to CLSI document VET01-A4 [1]. For isolates of H. somni and Glaesserella parasuis the agar-dilution method with chocolate agar GC II, was used. The test concentration range for all compounds was 16 μg/mL to 0.016 μg/mL.
The MIC results were interpreted according to the CLSI document VET01-S3 [2]. […] All wells containing test item were compared with the growth-control wells. The lowest concentration of compound at which no visible growth (i.e. no turbidity) was detected by the unaided eye was recorded as the MIC. […]

Glaesserella parasuis = experiment: MIC determination, agar-dilution (chocolate agar GC II), field isolates; assay type: cell-based
Experimental: as §1, §2, §3, §4, §5
(§6) For isolates tested by the agar-dilution method, results were interpreted according to the CLSI document VET01-S3 [2]. […] The MIC50 and MIC90 represent the concentrations at which a minimum of 50% or 90% of the isolates tested are inhibited.

[1] = tested on: P. multocida (bovine origin); experiment: MIC determination, broth-microdilution (CLSI VET01-A4), field isolates; assay type: cell-based, Pasteurella multocida
Experimental: as §1, §2, §3, §4, §5
(§7) The MIC results were interpreted according to the CLSI document VET01-S3 [2]. […] All wells containing test item were compared with the growth-control wells. The lowest concentration of compound at which no visible growth (i.e. no turbidity) was detected by the unaided eye was recorded as the MIC. If a “trailing endpoint” occurs, the MIC is defined as the first concentration at which a markedly reduction (about 90%) of the inoculum is observed.
as §6

[2] = tested on: P. multocida (porcine origin); experiment: as above; assay type: cell-based, Pasteurella multocida
Experimental: as §1, §2, §3, §4, §5, §7, §6

[3] = Pharmacokinetic analysis in blood plasma of cattle after single SC administration; assay type: in vivo; conditions: for concentration at 0.25 h / concentration at 0.5 h / concentration at 1 h / concentration at 2 h / concentration at 4 h / concentration at 7 h / concentration at 10 h / concentration at 24 h / concentration at 32 h / concentration at 48 h / concentration at 72 h: bovine, plasma, sc, 10 mg/kg, cattle; for concentration at 0.25 h: 0.25 h after administration; for concentration at 0.5 h: 0.5 h after administration; for concentration at 1 h: 1 h after administration; for concentration at 2 h: 2 h after administration; for concentration at 4 h: 4 h after administration; for concentration at 7 h: 7 h after administration; for concentration at 10 h: 10 h after administration; for concentration at 24 h: 24 h after administration; for concentration at 32 h: 32 h after administration; for concentration at 48 h: 48 h after administration; for concentration at 72 h: 72 h after administration
Experimental: This study determined the bioavailability, the pharmacokinetic profile of Compound A formulations for subcutaneous (SC) injection in the blood plasma of cattle after a single subcutaneous (SC) administration of 10 mg/kg body weight. Concentrations in the blood plasma and bronchial epithelial lining fluid concentrations were determined. Additional tissues were collected post mortem for compound concentration determination.
Compound A was formulated as described in Examples 1 and 2 above. The aqueous solution formulation was Compound A 15% w/v, 15 w/v Kollisolv P124, 6% w/v benzyl alcohol, 7% w/v citric acid, and QS Water, pH 5.2. The oily suspension formulation was Compound A 17.5% w/v, suspended with 0.1% Kolliphor HS, and QS Miglyol812.
Samples were collected into K-EDTA coated Monovettes®. The samples were collected from the Vena jugularis externa. Preferred was the left side of the body, on the opposite side of administration.
The tubes were gently shaken to ensure proper mixing of blood with the anti-coagulant and placed in ice water until centrifugation. K-EDTA-Blood samples were centrifuged at approximately 4° C. and a relative centrifugal force of 2000 for 10 min. Within 2 hours after collection, two aliquots (1, 2) of approximately 0.5 mL blood plasma were pipetted off each sample into labeled plastic (polypropylene) freezer vials.
Pharmacokinetic (PK) parameters (Table 10-2) were calculated using the Phoenix WinNonlin 8.1 software. PK parameters (at least: Cmax, Tmax, AUClast, HL_Lambda_Z, VZ_F, MRTlast, CL_F and F %) to describe the PK profile after SC compound administration.

[4] = Bordetella bronchiseptica, 20 isolates, broth microdilution
[5] = Glaesserella parasuis, 20 isolates, agar dilution
[6] = Pasteurella multocida, 25 isolates of bovine origin, broth microdilution
[7] = of 25 isolates tested, bovine origin
[8] = Pasteurella multocida, 22 isolates of porcine origin, broth microdilution
[9] = of 22 isolates tested, porcine origin
[10] = both aqueous solution group and oily suspension group, SC 10 mg/kg
[11] = SC 10 mg/kg 15% aqueous solution
[12] = SC 10 mg/kg 17.5% oily suspension

**Q.** For COCCNCc1ccc(C#Cc2ccc(C(=O)N[C@H](C(=O)NO)C(C)(C)N)cc2)cc1 [Compound A], which MIC50 (B. bronchiseptica; [4]) is on record?
**A.** 8 µg/mL (≈ 18.2 µM)

**Q.** What about the MIC90 (B. bronchiseptica; [4]) of the same compound?
**A.** 16 µg/mL (≈ 36.5 µM)

**Q.** What about the “Distribution of MICs: number of isolates with MIC 8 μg/mL” value (B. bronchiseptica; of 20 isolates tested) of the same compound?
**A.** 10

**Q.** And the “Distribution of MICs: number of isolates with MIC 16 μg/mL” value (B. bronchiseptica; of 20 isolates tested)?
**A.** 10

**Q.** And the MIC50 (Glaesserella parasuis; [5])?
**A.** 1 µg/mL (≈ 2.28 µM)

**Q.** What about the MIC90 (Glaesserella parasuis; [5]) of the same compound?
**A.** 2 µg/mL (≈ 4.56 µM)

**Q.** What about the “Distribution of MICs: number of isolates with MIC 0.5 μg/mL” value (Glaesserella parasuis; of 20 isolates tested) of the same compound?
**A.** 2

**Q.** And the “Distribution of MICs: number of isolates with MIC 1 μg/mL” value (Glaesserella parasuis; of 20 isolates tested)?
**A.** 12

**Q.** And the “Distribution of MICs: number of isolates with MIC 2 μg/mL” value (Glaesserella parasuis; of 20 isolates tested)?
**A.** 5

**Q.** And the “Distribution of MICs: number of isolates with MIC 4 μg/mL” value (Glaesserella parasuis; of 20 isolates tested)?
**A.** 1

**Q.** What about the MIC50 [1, 6] of the same compound?
**A.** 0.032 µg/mL (≈ 0.073 µM)

**Q.** And the MIC90 [1, 6]?
**A.** 0.063 µg/mL (≈ 0.144 µM)

**Q.** And the “Distribution of MICs: number of isolates with MIC 0.032 μg/mL” value [1, 7]?
**A.** 12

**Q.** And the “Distribution of MICs: number of isolates with MIC 0.063 μg/mL” value [1, 7]?
**A.** 6

**Q.** And the “Distribution of MICs: number of isolates with MIC 0.125 μg/mL” value [1, 7]?
**A.** 1

**Q.** And the “Distribution of MICs: number of isolates with MIC ≤0.016 μg/mL” value [1, 7]?
**A.** 6

**Q.** What about the MIC50 [2, 8] of the same compound?
**A.** 0.032 µg/mL (≈ 0.073 µM)

**Q.** What about the MIC90 [2, 8] of the same compound?
**A.** 0.063 µg/mL (≈ 0.144 µM)

**Q.** What about the “Distribution of MICs: number of isolates with MIC 0.032 μg/mL” value [2, 9] of the same compound?
**A.** 12

**Q.** What about the “Distribution of MICs: number of isolates with MIC 0.063 μg/mL” value [2, 9] of the same compound?
**A.** 6

**Q.** And the “Distribution of MICs: number of isolates with MIC 0.125 μg/mL” value [2, 9]?
**A.** 1

**Q.** What about the “Distribution of MICs: number of isolates with MIC ≤0.016 μg/mL” value [2, 9] of the same compound?
**A.** 3

**Q.** What about the “Compound persistence in cattle” value [3, 10] of the same compound?
**A.** around 11 h

**Q.** And the “Period of constant plasma plateau levels after treatment” value [3, 10]?
**A.** 4 to 10 h

**Q.** What about the “Time for which compound was detected in bovine plasma, on average” value [3, 10] of the same compound?
**A.** 72 h

**Q.** What about the concentration at 0.25 h [3, 11] of the same compound?
**A.** 1440 ng/mL

**Q.** What about the concentration at 0.5 h [3, 11] of the same compound?
**A.** 1630 ng/mL

**Q.** And the concentration at 1 h [3, 11]?
**A.** 1260 ng/mL

**Q.** What about the concentration at 2 h [3, 11] of the same compound?
**A.** 567 ng/mL

**Q.** What about the concentration at 4 h [3, 11] of the same compound?
**A.** 363 ng/mL

**Q.** And the concentration at 7 h [3, 11]?
**A.** 395 ng/mL

**Q.** And the concentration at 10 h [3, 11]?
**A.** 320 ng/mL

**Q.** And the concentration at 24 h [3, 11]?
**A.** 47 ng/mL

**Q.** What about the concentration at 32 h [3, 11] of the same compound?
**A.** 22 ng/mL

**Q.** What about the concentration at 48 h [3, 11] of the same compound?
**A.** 11.5 ng/mL

**Q.** And the concentration at 72 h [3, 11]?
**A.** 6.55 ng/mL

**Q.** What about the concentration at 0.25 h [3, 12] of the same compound?
**A.** 1220 ng/mL

**Q.** And the concentration at 0.5 h [3, 12]?
**A.** 1090 ng/mL

**Q.** What about the concentration at 1 h [3, 12] of the same compound?
**A.** 571 ng/mL

**Q.** What about the concentration at 2 h [3, 12] of the same compound?
**A.** 413 ng/mL

**Q.** And the concentration at 4 h [3, 12]?
**A.** 356 ng/mL

**Q.** What about the concentration at 7 h [3, 12] of the same compound?
**A.** 433 ng/mL

**Q.** And the concentration at 10 h [3, 12]?
**A.** 319 ng/mL

**Q.** And the concentration at 24 h [3, 12]?
**A.** 56.5 ng/mL

**Q.** And the concentration at 32 h [3, 12]?
**A.** 30.8 ng/mL

**Q.** And the concentration at 48 h [3, 12]?
**A.** 13.2 ng/mL

**Q.** And the concentration at 72 h [3, 12]?
**A.** 7.28 ng/mL

Source: patent US20250057790A1, “AN INJECTABLE PHARMACEUTICAL COMPOSITION FOR THE TREATMENT OF RESPIRATORY DISEASES IN ANIMALS” (priority 2021, published 2025)
